Test results from US20050186135A1, “Compositions, methods, apparatuses, and systems for singlet oxygen delivery” (priority 2001, published 2005).

How the values were obtained:
[1] = test system: atherosclerosis; conditions: in vivo; cited from earlier work
[2] = in vivo; cited from earlier work
[3] = Ameta et al. 1990; Parker and Stanbro 1984; cited from earlier work
[4] = test system: mitosis; conditions: Lamprecht et al. 1990; cited from earlier work
[5] = test system: tumor growth; conditions: mice, Altermatt et al. 1990; cited from earlier work
[6] = test system: influenzal pneumonia; conditions: intravenous hydrogen peroxide solution, Oliver 1920; cited from earlier work
[7] = test system: a single cell; conditions: Oseroff et al. 1986; cited from earlier work
[8] = stated as believed; cited from earlier work
[9] = test system: skin keratosis lesion; assay: Treatment of Keratosis I: intralesional injection; format: in vivo, human; conditions: 0.4 ml of 6% sodium hypochlorite alone into center of ~1.25 cm lesion
Protocol: A skin keratosis lesion measuring approximately 1.25 cm in diameter was chosen as a target for treatment. The lesion was located on the left temple of a person.
Using a 30-gauge hypodermic needle, 0.4 ml of a 6% solution of sodium hypochlorite was injected into the center of the lesion. […] See FIG. 20 for a photo of the area immediately following the injection.
Immediately after the first injection, using a 30-gauge hypodermic needle, 0.4 ml of a 3% solution of hydrogen peroxide was injected into the center of the lesion. […] See FIG. 21 for a photo of the area immediately following the injection.

[10] = test system: coronary artery blocked with sclerotic plaque; assay: Treatment of Sclerotic Plaque I: cadaver artery section in test tube; parameters: species or system human; conditions: 2 ml of 6% sodium hypochlorite, shaken one minute
Excerpt: A coronary artery blocked with sclerotic plaque, taken from a human cadaver, was chosen as a target site for treatment. The coronary artery was grayish pink in color and suspended in a formaldehyde preservative. It was surrounded with fatty tissue of an irregular shape, which measured approximately 1 cm in its widest dimension. It measured 0.6 cm in length and 0.5 cm diameter. The lumen of the vessel was completed occluded with sclerotic plaque.
The cross section of coronary artery was placed in a test tube containing 2 ml of 6% of sodium hypochlorite and was shaken for one minute. […] This preparation was then again shaken.

[11] = test system: coronary artery blocked with sclerotic plaque; assay: Treatment of Sclerotic Plaque II: hypochlorite alone, then peroxide added; parameters: species or system human; conditions: 2 ml of 6% sodium hypochlorite alone
Protocol: The following tests were performed to corroborate that the singlet oxygen produced by the hydrogen peroxide and the sodium hypochlorite had actually cleared and opened the human coronary artery blocked with the sclerotic plaque.
Like Example 3, a coronary artery blocked with sclerotic plaque, taken from a human cadaver, was prepared as a target site for treatment. The coronary artery was grayish pink in color and suspended in a formaldehyde preservative. It was surrounded with fatty tissue of an irregular shape, which measured 1.1 cm in its widest dimension. It measured approximately 0.6 cm in length and 0.5 cm in diameter. The lumen of the vessel was completed occluded with sclerotic plaque.
The human coronary artery with the plaque was first treated with 2 ml of 6% solution of sodium hypochlorite alone.
Immediately after the treatment with the sodium hypochlorite, 2 ml of 3% solution of hydrogen peroxide was added to the 2 ml of 6% solution of sodium hypochlorite containing the human coronary artery with the plaque.

[12] = gives peroxyl and/or alkoxyl radicals; Noguchi et al. 2002; cited from earlier work

CC(=O)[O-].CC(=O)[O-].CCc1c(CC)c2cc3nc(cnc4cc(OCCOCCOCCOC)c(OCCOCCOCCOC)cc4ncc4nc(cc1[n-]2)C(CCCO)=C4C)C(C)=C3CCCO.O.[Lu+3] [Antrin, motexafin lutetium]
feasibility and tolerability of photoangioplasty [1]: feasible and well tolerated

[2H]O[2H] [D2O, deuterium oxide]
safety in infants [2]: safe
toxicity in mammals [2]: low toxicity
effect on lifetime of singlet oxygen [3]: can increase the lifetime of singlet oxygen
effect on mitosis [4]: anti-mitotic effect optimized between anaphase and metaphase
effect on rate of tumor growth [5]: can depress the rate of tumor growth in mice

OO [hydrogen peroxide]
treatment success [6]: high rate of success

O=O [singlet oxygen]
molecules of singlet oxygen necessary to kill a single cell [7]: 10^10 molecules
lifetime of singlet oxygen [8]: about 50 nanoseconds

OCl [sodium hypochlorite]
bleeding at injection site [9]: minor bleeding at the lower border of the injection site
sensation on injection ([9]; 30-gauge needle): mild burning sensation
solubilization by hypochlorite alone [10]: minimal solubilization of the surrounding fatty tissue of the vessel
change of plaque with hypochlorite alone [11]: no significant changes occurred to the plaque

CC(C)(C)OO [tert-butyl hydroperoxide]
formation of singlet oxygen on reaction with hypochlorite [12]: little formation of singlet oxygen
